Reference: article PMC11574021, “CEP192 localises mitotic Aurora-A activity by priming its interaction with TPX2” (The EMBO Journal, 2024)

Tests used:
Assay type in all cases: cell-based, Homo sapiens
[1] = system: TACC3 in RPE1 p53-/- cells; test: Immunofluorescence, TACC3 spindle signal intensity, RPE1 p53-/-; details: Aurora-A inhibitor 30 min or siRNA 48 h
Experimental: (§1) As noted in the figures, the following drugs were incubated with cells for 30 min at 37 °C: Aurora-B-i ZM447439 2 µM [10 mM], PLK1-I BI2536 1 µM [10 mM] and Aurora-A-i MLN8237 [5 mM] was used at 250 and 500 nM in U251 and RPE1 cells, respectively. Drugs were resuspended in DMSO to the stock concentrations indicated in square brackets. BI2536 (HY-50698), MLN8237 (HY-10971) and ZM447439 (HY-10128) were all purchased from MedChemExpress. For western blotting, a 20-min pre-treatment with proteasome inhibitor (20 µM MG-132, MerckMillipore, 47490 [20 mM]) was required prior to the addition of DMSO control or kinase inhibitors. This prevented mitotic exit as a consequence of checkpoint override following Aurora-A and Aurora-B inhibitor addition.
(§2) siRNA depletion was carried out by reverse transfection using oligofectamine (Thermo Scientific, 12252011) and lipofectamine RNAiMax (Thermo Scientific, 13778075), according to the manufacturer’s instructions, for U251 and RPE1 cells, respectively. For immunofluorescence, 1 × 10^5 cells were seeded in six-well plates and simultaneously transfected with 60 pmol siRNA duplex and 3 µl transfection reagent diluted in 200 µl Opti-MEM serum-free medium. Growth medium was added to a final volume of 2 ml. […]

[2] = system: Aurora-A-pT288 in U251 cells; test: Western blot densitometry of Aurora-A-pT288, mitotic U251 cells; details: mitotic U251 (and RPE1) lysates, siRNA 48 h, in words
Experimental: For western blotting analysis of mitotic lysates, cells were synchronised in mitosis with 10 µM S-Trityl-L-cysteine (STLC, Bio-Techne, 2191-50), an Eg5 inhibitor, for 20 h prior to collecting by mitotic shake-off. For measuring monopolar spindle diameter and counting centriolar foci by immunofluorescence, cells were treated with 10 µM STLC for 1 h and 4 h prior to fixation, respectively.
as §1
Cells were lysed on ice for 30 min in lysis buffer (50 mM tris pH 8.0, 300 mM NaCl, 0.2%(v/v) NP-40, 10%(v/v) glycerol, protease inhibitor cocktail C, phosphatase inhibitor cocktail 3 (Sigma, 1:200 dilution), 100 nM okadaic acid (Enzo, ALX-350-003-C100)). Lysates were then centrifuged at 14,000 × g, 15 min, 4 °C, the supernatants were transferred to a fresh tube, and the pellet was discarded. Protein concentrations were measured by Bradford assay using Protein Assay Dye Reagent Concentrate (Bio-Rad Laboratories, 5000006). NuPage LDS sample buffer, supplemented with NuPAGE sample reducing agent (Invitrogen) were added prior to boiling for 10 min at 90 °C. […]
Densitometric quantification of western blots was also performed in ImageJ. Intensity was measured in a rectangular region of interest (ROI) around each band. […] An adjacent region was also measured to account for background intensity.

[3] = system: PPP1CA-pT320, PRC1-pT481 and Histone-H3-pS10 in U251 cells; test: Western blot, mitotic phosphorylations (PPP1CA-pT320, PRC1-pT481, Histone-H3-pS10), asynchronous U251; details: asynchronous U251, siRNA 48 h
Experimental: Cells were lysed on ice for 30 min in lysis buffer (50 mM tris pH 8.0, 300 mM NaCl, 0.2%(v/v) NP-40, 10%(v/v) glycerol, protease inhibitor cocktail C, phosphatase inhibitor cocktail 3 (Sigma, 1:200 dilution), 100 nM okadaic acid (Enzo, ALX-350-003-C100)). Lysates were then centrifuged at 14,000 × g, 15 min, 4 °C, the supernatants were transferred to a fresh tube, and the pellet was discarded. Protein concentrations were measured by Bradford assay using Protein Assay Dye Reagent Concentrate (Bio-Rad Laboratories, 5000006). NuPage LDS sample buffer, supplemented with NuPAGE sample reducing agent (Invitrogen) were added prior to boiling for 10 min at 90 °C. Equal amounts of protein, between 8–20 µg/lane, were loaded into pre-cast 4–12% Bis-Tris gels (Invitrogen, NP0322BOX) and proteins separated in 1x MOPS buffer (Invitrogen) and transferred to nitrocellulose membrane (0.45 µM). Nitrocellulose was then blocked in 5% milk (wt/v) in TBS, 0.1% Tween (v/v) (TBST) for 1 h. Primary and secondary antibodies were diluted in 5% milk, TBST and incubated overnight at 4 °C or for 1 h at room temperature, respectively. Species-specific secondary antibodies conjugated to horseradish peroxidase (HRP) were used (anti-Mouse, Cytiva NA931V; anti-Rabbit, Cytiva NA934; anti-Sheep, Jackson 713-035-003). Membranes were washed for 1 h in TBST, changing the buffer five times, after each antibody incubation.
as §2, with “ml. For western blotting, 1 × 10^6 cells were seeded in 10 cm dishes and transfected with 300 pmol siRNA duplex and 15 µl transfection reagent diluted in 1000 µl Opti-MEM.” for “ml.”

| Compound | spindle recruitment of TACC3 [1] | activation loop phosphorylation (pT288) of Aurora-A in mitotic cell lysates [2] | mitotic phosphorylations (PPP1CA-pT320, PRC1-pT481, Histone-H3-pS10) [3] |
| --- | --- | --- | --- |
| 5′-CGGUAGUGAUAAAAGCUCAtt-3′ [siTPX2] | fully prevented both spindle recruitment of TACC3 | strongly reduced activation loop phosphorylation (pT288) of Aurora-A | increased levels of mitotic phosphorylations |
| COc1cc(Nc2ncc3c(n2)-c2ccc(Cl)cc2C(c2c(F)cccc2OC)=NC3)ccc1C(=O)O [Alisertib] | abrogated spindle recruitment of TACC3 |  |  |
| 5′-CAAACAACUUGGAAAUCGAtt-3′ [siCEP192] |  | comparable reduction in pT288 Aurora-A levels to that of TPX2 | increased levels of mitotic phosphorylations |
